Experimental data as given in PubChem BioAssay (NCI).
“And” between values parts separate entries of the source, which are not always exact repeats. Equal entries are not always repeated.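 96-well plates; 48 h exposure; 5 concentrations. Endpoints by linear interpolation between flanking doses. Not reached: highest tested concentration assigned. GI50 is the concentration that inhibits growth by half. At the TGI there is no net growth.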

How the values were obtained:
Test in all cases: NCI tumour cell line growth inhibition, 48 h
786-0 renal = test system: 786-0 renal
DU-145 prostate = test system: DU-145 prostate
MCF7 breast = test system: MCF7 breast
MDA-MB-435 = test system: MDA-MB-435
MOLT-4 leukemia = test system: MOLT-4 leukemia
RXF 393 renal = test system: RXF 393 renal
SF-539 CNS = test system: SF-539 CNS
SNB-19 CNS = test system: SNB-19 CNS
T-47D breast = test system: T-47D breast
UACC-257 melanoma = test system: UACC-257 melanoma

| Structure (SMILES) | GI50 (786-0 renal) | TGI (786-0 renal) | GI50 (DU-145 prostate) | TGI (DU-145 prostate) [µM] | GI50 (MCF7 breast) | TGI (MCF7 breast) | GI50 (MDA-MB-435) | TGI (MDA-MB-435) | GI50 (MOLT-4 leukemia) | TGI (MOLT-4 leukemia) | GI50 (RXF 393 renal) | TGI (RXF 393 renal) | GI50 (SF-539 CNS) | TGI (SF-539 CNS) | GI50 (SNB-19 CNS) | TGI (SNB-19 CNS) [µM] | GI50 (T-47D breast) | TGI (T-47D breast) | GI50 (UACC-257 melanoma) | TGI (UACC-257 melanoma) |
| --- | --- | --- | --- | --- | --- | --- | --- | --- | --- | --- | --- | --- | --- | --- | --- | --- | --- | --- | --- | --- |
| S=C(N/N=C/c1ccccn1)Nc1ccccn1 | 2.58 µM | 36.4 µM | 2.58 µM | > 100 | 0.472 µM | > 100 µM | 3.86 µM | > 100 µM | 0.467 µM | > 100 µM | 0.485 µM | 4.15 µM | 1.81 µM | 9.02 µM | 2.16 µM | > 100 | 1.93 µM | 90.7 µM | 0.903 µM | 5.85 µM |
| O=C(C(Br)Br)C(Br)C(Br)c1ccccc1 (centres undefined) | 3.47 µM | 11 µM | 11.4 µM | 23.6 | 3.58 µM | 13.4 µM | 2.67 µM | 8.21 µM | 1.82 µM | 4.76 µM | 1.7 µM | 3.45 µM | 2.43 µM | 7.84 µM | 17.4 µM | 35.2 | 2.75 µM | 9.69 µM | 2.39 µM | 7.24 µM |
| O=C1c2ccccc2-c2c1c1ccccc1c(=O)n2CCNCCNCCn1c2c(c3ccccc3c1=O)C(=O)c1ccccc1-2 | 0.0267 µM | 2.37 µM | 0.179 µM | 4.61 | 0.109 µM | 1.06 µM | 0.97 µM | 19.6 µM | – | > 100 µM | 0.114 µM | 10.3 µM | 0.542 µM | 12.3 µM | 1.14 µM | 20.5 | 18.1 µM | 41.5 µM | 11.3 µM | > 48.4 µM |
| CNC(=O)c1cccc(-c2ccc3c(N4CCOC[C@@H]4C)nc(N4CCOC[C@@H]4C)nc3n2)c1 | 0.229 µM and 0.252 µM | > 32.8 µM | 0.162 µM and 0.302 µM and 0.25 µM | > 100 | 0.0295 µM and 0.098 µM and 0.0368 µM | 5.51 µM and > 3.46 µM and 9.7 µM | 0.0925 µM and 0.204 µM and 0.147 µM | 1.8 µM and 1.34 µM and 1.27 µM | 0.101 µM and 0.146 µM and 0.214 µM | 28.9 µM and > 10 µM and > 44.4 µM | 0.0488 µM and 0.06 µM and 0.028 µM | 0.47 µM and 0.37 µM and 0.337 µM | 0.15 µM and 0.166 µM and 0.125 µM | 1.49 µM and 1.26 µM and 0.677 µM | 0.448 µM and 0.29 µM | > 93.3 | 0.0168 µM and 0.0287 µM and 0.0186 µM | 0.246 µM and 0.212 µM and 0.103 µM | 0.0518 µM and 0.188 µM and 0.0589 µM | 1.21 µM and 1.69 µM and 0.487 µM |
| N=C(N)CCCCCCCCC(=N)N | > 100 µM | > 100 µM | 20.8 µM | > 100 | 25.7 µM | > 100 µM | > 100 µM | > 100 µM | 46.4 µM | > 100 µM | > 100 µM | > 100 µM | 35.4 µM | > 100 µM | 22.5 µM | > 100 | 25 µM | > 100 µM | > 100 µM | > 100 µM |
| Cc1cc2c(F)c(Oc3ncnn4cc(OC[C@@H](C)OC(=O)[C@H](C)N)c(C)c34)ccc2[nH]1 | 12 µM | 26.9 µM | 11.7 µM | 24.2 | 8.58 µM | 24 µM | 11.3 µM | 23.8 µM | 7.25 µM | 23.5 µM | 8.4 µM | 22.5 µM | 4.81 µM | 17.3 µM | 9.99 µM | 23 | 13.4 µM | 31.7 µM | 14.6 µM | 28.1 µM |
| C[N+](C)(CCCCCC[N+](C)(C)CCCN1C(=O)c2cc3ccccc3cc2C1=O)CCCN1C(=O)c2ccccc2C1=O | > 37.5 µM | > 37.5 µM | > 37.5 µM | > 37.5 | > 37.5 µM | > 37.5 µM | > 37.5 µM | > 37.5 µM | > 37.5 µM | > 37.5 µM | > 37.5 µM | > 37.5 µM | > 37.5 µM | > 37.5 µM | > 37.5 µM | > 37.5 | > 37.5 µM | > 37.5 µM | > 37.5 µM | > 37.5 µM |
| C[C@H]1CCC/C=C/[C@@H]2C[C@H](O)C[C@H]2[C@H](O)[C@@H](S(=O)CCN(C)C)CC(=O)O1 (some centres undefined) | 0.0416 µM | – | 0.555 µM | > 100 | 0.147 µM | – | 0.193 µM | > 100 µM | 0.349 µM | – | 0.0542 µM | > 100 µM | 0.151 µM | > 100 µM | – | > 100 | 0.338 µM | – | 0.0904 µM | > 100 µM |
| COc1ccc(-c2nc(-c3cn(C)c4ncccc34)cs2)cc1 | 51.5 µM | > 100 µM | > 100 µM | > 100 | 12.5 µM | > 100 µM | 2.79 µM | > 100 µM | 18.9 µM | > 100 µM | 55.2 µM | > 100 µM | 92.7 µM | > 100 µM | > 100 µM | > 100 | 12.5 µM | > 100 µM | > 100 µM | > 100 µM |
| C=C(CN1CCc2ccccc2C1)c1ccc(C(=O)Nc2ccc(N)cc2)cc1 | 22.9 µM | > 100 µM | 21.1 µM | 81.3 | 14.8 µM | > 100 µM | 3.11 µM | 11.3 µM | 1.93 µM | 53 µM | 16.9 µM | 91.4 µM | 19.3 µM | 57.4 µM | 28.3 µM | > 100 | 11.1 µM | 41.7 µM | 20.2 µM | 59.7 µM |
| COc1c(O)ccc2c1CN1CCc3cc4c(cc3C1C2)OCO4 (centres undefined) | – | > 100 µM | – | > 100 | – | > 63.1 µM | – | > 60.9 µM | – | > 100 µM | – | 50.6 µM | – | > 100 µM | – | > 100 | – | > 73.9 µM | – | > 77.2 µM |
| COc1ccc(-c2cn[nH]c2-c2cc(OC)c(OC)c(OC)c2)cc1N | < 0.01 µM and 0.0611 µM | 86.5 µM and > 56.6 µM | < 0.01 µM and 0.0508 µM | > 100 | < 0.01 µM and 0.0266 µM | > 100 µM | < 0.01 µM | < 0.01 µM and 0.0309 µM | < 0.01 µM and 0.0429 µM | > 100 µM | 0.0247 µM | > 100 µM | < 0.01 µM | > 100 µM | < 0.01 µM and 0.0484 µM | > 100 | 17.1 µM and 25 µM | 77.4 µM and > 100 µM | 28.4 µM | > 100 µM |
| O=C1CCC2(C=C(Br)C(=O)C(Br)=C2)O1 | 17 µM | 30.8 µM | 5.44 µM | 15.5 | 3.57 µM | 15.7 µM | 4.84 µM | 11.3 µM | 3.46 µM | > 23 µM | 2.82 µM | 6.96 µM | 2.63 µM | 7.14 µM | 18.5 µM | 35.6 | 2.22 µM | 5.04 µM | 3.52 µM | 9.28 µM |
